Assay results reported in US20140228349A1, “5,7-SUBSTITUTED-IMIDAZO[1,2-C]PYRIMIDINES” (Array BioPharma Inc., priority 2011, published 2014).

Key:
Format in all cases: biochemical
[1] = molecular target: T1, Human Tyk2 kinase domain (Homo sapiens, UniProt P29597); experiment: Tyk2 Inhibition Assay (Omnia kinase fluorescence peptide substrate); details: averaged IC50 ranges; 10 μM (Km app) or 1 mM ATP, 2 nM Tyk2
T1 construct: comprising amino acids 886 to 1187; His10 (10 histidine residues) (C, cleaved yes); made in house
T1 sequence (P29597 886-1187): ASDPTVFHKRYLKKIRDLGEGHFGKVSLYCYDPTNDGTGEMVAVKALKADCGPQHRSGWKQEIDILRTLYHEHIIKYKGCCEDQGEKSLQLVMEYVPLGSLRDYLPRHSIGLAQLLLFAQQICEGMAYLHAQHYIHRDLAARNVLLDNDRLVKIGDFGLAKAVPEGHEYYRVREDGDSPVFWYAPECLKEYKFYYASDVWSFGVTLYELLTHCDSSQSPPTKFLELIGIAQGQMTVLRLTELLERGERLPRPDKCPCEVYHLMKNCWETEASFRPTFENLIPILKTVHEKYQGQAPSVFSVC
Text: (§1) The assays described in Examples A, B, C and D for the determination of Tyk2, JAK1, JAK2 and JAK3 kinase activity, respectively, utilized the Omnia® Kinase fluorescence peptide substrate-based technology (Invitrogen). The specific components of the assay mixture are described in Examples A, B, C and D. In these assays, Mg^2+ is chelated upon phosphorylation of the Omnia peptide by the kinase to form a bridge between the chelation-enhanced fluorophore Sox and the phosphate, resulting in an increase in fluorescence emission at 485 nm when excited at […]. The reactions were therefore read at excitation 360 nm and emission was measured at 485 nm every 50 seconds for 45 minutes using a PerkinElmer EnVision Multilabel Plate Reader.
(§2) The final buffer conditions for Tyk2, JAK1, JAK2, and JAK3 assays were as follows: 25 mM HEPES, pH 7.4, 10 mM MgCl2, 0.01% Triton X-100 and 1 mM DTT.
(§3) Compounds were prepared at 50× the final concentration in DMSO by conducting 3-fold serial dilutions from a 500-μM intermediate dilution to give a 10-point dosing curve having a high dose of 10 μM. Two-μL aliquots of these were transferred to a fresh plate for a ten-fold intermediate dilution with assay buffer. Five-μL aliquots of the diluted compounds were then transferred to 20-μL of assay mixtures described in Examples A, B, C and D for a final concentration of DMSO of 2%. A standard or reference compound was typically included on each assay plate to validate that plate. For each plate, percent of control (POC) values were calculated for each well according to the following equation: […]
(§4) IC50's were estimated from the POC's using a standard 4-parameter logistic model:
(§5) The IC50 is defined as the concentration of inhibitor at which the POC equals 50 for the fitted curve.
Compounds of Formula I were screened for their ability to inhibit Tyk2 using the general enzyme inhibition assay method, in which the assay mixture contained 10 μM (Km app) or 1 mM ATP, 8 μM Omnia® Y12 peptide (Catalog #IVGN KPZ3121C; Invitrogen Corporation, Carlsbad, Calif.) and 2 nM Tyk2 in a total volume of 20 μL. Human Tyk2 kinase domain, comprising amino acids 886 to 1187 with 10 additional histidine residues (histidine tag) on the carboxy terminus, was expressed and purified from bacculovirus in-house at Array BioPharma Inc. (Boulder, Colo.). The histidine tag was cleaved after purification using standard conditions.

[2] = molecular target: T2, JAK1 (Homo sapiens, UniProt P23458); experiment: JAK1 Inhibition Assay (Omnia kinase fluorescence peptide substrate); details: averaged IC50 ranges; 40 μM (Km app) or 1 mM ATP, 15 nM JAK1
T2 construct: purchased Invitrogen Corporation, Carlsbad, Calif; IVGN PV4775
T2 sequence (P23458 whole entry): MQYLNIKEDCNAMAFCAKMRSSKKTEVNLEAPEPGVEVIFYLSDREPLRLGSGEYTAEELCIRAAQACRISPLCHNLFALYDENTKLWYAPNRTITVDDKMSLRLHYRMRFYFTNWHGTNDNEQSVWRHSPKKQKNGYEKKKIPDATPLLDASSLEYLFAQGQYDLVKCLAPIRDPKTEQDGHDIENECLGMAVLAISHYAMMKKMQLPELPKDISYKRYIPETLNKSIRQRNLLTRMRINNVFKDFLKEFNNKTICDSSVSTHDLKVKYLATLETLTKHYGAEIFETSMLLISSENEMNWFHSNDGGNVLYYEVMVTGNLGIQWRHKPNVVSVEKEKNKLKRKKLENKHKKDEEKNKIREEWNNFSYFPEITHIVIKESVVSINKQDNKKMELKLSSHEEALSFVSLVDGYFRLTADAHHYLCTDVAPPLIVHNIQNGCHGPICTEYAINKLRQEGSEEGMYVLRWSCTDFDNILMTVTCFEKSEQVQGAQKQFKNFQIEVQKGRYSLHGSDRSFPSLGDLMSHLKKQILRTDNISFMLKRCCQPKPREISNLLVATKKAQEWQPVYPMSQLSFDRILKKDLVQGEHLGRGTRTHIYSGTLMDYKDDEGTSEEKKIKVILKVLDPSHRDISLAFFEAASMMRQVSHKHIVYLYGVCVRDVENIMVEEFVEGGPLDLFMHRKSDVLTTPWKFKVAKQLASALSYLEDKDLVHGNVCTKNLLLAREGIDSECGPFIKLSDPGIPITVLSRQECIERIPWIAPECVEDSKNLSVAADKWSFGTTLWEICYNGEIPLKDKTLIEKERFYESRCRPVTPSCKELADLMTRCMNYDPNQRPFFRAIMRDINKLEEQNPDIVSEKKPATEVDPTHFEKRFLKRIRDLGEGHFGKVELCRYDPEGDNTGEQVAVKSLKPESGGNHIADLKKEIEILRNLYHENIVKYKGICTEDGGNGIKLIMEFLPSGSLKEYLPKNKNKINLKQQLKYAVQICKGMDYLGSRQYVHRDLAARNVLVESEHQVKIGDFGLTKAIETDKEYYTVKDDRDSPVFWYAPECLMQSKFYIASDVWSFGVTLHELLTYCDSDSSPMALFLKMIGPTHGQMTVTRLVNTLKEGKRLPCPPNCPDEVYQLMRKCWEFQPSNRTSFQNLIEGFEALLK
Text: as §1, §2, §3, §4, §5
Compounds of Formula I were screened for their ability to inhibit JAK1 using the general enzyme inhibition assay method, in which the assay mixture contained 40 μM (Km app) or 1 mM ATP, 8 μM Omnia® Y12 peptide (Catalog #IVGN KPZ3121C; Invitrogen Corporation, Carlsbad, Calif.) and 15 nM JAK1 in a total volume of 20 μL. JAK1 was purchased from Invitrogen Corporation, Carlsbad, Calif. (catalog #IVGN PV4775).

[3] = molecular target: T3, JAK2 (Homo sapiens, UniProt O60674); experiment: JAK2 Inhibition Assay (Omnia kinase fluorescence peptide substrate); details: averaged IC50 ranges; 25 μM (Km app) or 1 mM ATP, 5 nM JAK2
T3 construct: purchased Invitrogen Corporation, Carlsbad, Calif; IVGN PV4288
T3 sequence (O60674 whole entry): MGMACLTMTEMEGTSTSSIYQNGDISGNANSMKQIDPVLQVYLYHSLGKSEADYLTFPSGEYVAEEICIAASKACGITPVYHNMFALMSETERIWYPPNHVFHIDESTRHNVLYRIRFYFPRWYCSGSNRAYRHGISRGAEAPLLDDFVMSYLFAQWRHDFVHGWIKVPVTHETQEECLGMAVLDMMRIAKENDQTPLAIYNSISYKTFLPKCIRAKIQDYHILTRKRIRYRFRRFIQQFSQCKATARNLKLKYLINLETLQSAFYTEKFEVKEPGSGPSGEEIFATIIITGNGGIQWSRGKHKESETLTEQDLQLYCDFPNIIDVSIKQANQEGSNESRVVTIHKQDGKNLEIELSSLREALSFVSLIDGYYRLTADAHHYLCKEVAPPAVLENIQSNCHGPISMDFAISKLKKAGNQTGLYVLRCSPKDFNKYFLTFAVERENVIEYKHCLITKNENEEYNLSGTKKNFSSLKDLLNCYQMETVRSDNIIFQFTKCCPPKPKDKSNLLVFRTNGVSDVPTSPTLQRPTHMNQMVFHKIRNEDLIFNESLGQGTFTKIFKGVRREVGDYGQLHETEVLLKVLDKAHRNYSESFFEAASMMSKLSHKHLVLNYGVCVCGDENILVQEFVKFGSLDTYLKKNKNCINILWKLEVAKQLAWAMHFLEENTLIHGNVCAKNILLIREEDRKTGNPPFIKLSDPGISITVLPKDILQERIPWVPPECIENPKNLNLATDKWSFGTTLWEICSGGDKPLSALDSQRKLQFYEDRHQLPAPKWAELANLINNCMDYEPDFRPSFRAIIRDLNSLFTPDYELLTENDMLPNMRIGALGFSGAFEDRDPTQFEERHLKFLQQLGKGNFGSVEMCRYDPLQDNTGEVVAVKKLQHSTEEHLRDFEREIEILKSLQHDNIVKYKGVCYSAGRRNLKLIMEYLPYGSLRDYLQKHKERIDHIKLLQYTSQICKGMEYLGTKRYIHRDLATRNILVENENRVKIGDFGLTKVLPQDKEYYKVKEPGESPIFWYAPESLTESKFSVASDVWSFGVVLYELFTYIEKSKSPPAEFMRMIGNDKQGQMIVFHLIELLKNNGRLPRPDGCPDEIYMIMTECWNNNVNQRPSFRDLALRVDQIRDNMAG
Text: as §1, §2, §3, §4, §5
(§6) Compounds of Formula I were screened for their ability to inhibit JAK2 using the general enzyme inhibition assay method, in which the assay mixture contained 25 μM (Km app) or 1 mM ATP, 10 μM Omnia® Y7 peptide (Catalog #IVGN KNZ3071C, Invitrogen Corporation, Carlsbad, Calif.) and 5 nM JAK2 in a total volume of 20 μL. JAK2 was purchased from Invitrogen Corporation, Carlsbad, Calif. (catalog #IVGN PV4288).

[4] = molecular target: T4, JAK3 (Homo sapiens, UniProt P52333); experiment: JAK3 Inhibition Assay (Omnia kinase fluorescence peptide substrate); details: averaged IC50 ranges; 10 μM (Km app) or 1 mM ATP, 2.5 nM JAK3
T4 construct: purchased Invitrogen Corporation, Carlsbad, Calif; IVGN PV4080
T4 sequence (P52333 1-1124): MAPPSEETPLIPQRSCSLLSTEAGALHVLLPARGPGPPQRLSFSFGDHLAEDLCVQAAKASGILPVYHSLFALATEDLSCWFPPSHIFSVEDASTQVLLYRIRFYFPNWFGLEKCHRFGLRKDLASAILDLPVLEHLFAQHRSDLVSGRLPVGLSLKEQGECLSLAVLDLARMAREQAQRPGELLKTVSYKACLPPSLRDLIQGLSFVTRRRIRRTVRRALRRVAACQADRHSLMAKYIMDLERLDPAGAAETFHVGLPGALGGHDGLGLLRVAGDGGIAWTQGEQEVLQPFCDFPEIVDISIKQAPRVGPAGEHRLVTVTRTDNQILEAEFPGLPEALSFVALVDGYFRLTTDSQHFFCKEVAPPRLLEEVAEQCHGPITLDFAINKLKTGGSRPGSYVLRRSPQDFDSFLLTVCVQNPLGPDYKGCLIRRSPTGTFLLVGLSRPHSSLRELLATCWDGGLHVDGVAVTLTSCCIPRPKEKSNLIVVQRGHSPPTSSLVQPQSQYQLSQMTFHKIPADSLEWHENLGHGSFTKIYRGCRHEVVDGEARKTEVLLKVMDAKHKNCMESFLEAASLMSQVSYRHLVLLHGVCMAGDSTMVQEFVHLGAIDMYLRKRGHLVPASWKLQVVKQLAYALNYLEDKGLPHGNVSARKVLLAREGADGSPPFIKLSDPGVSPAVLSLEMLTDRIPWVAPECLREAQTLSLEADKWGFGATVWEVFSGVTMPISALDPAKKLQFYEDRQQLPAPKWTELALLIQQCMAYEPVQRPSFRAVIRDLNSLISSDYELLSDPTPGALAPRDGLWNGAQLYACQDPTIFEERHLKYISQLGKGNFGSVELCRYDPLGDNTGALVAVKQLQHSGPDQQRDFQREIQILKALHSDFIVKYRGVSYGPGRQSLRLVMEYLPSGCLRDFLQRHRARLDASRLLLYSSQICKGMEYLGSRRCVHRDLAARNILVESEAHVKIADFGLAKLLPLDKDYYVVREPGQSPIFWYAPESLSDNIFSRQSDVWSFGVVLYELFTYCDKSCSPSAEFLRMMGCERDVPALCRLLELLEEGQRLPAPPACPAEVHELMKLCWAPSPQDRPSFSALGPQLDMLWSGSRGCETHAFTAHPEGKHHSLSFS
Text: as §1, §2, §3, §4, §5
as §6, with “JAK3” for “JAK2”, “10” for “25”, “2.5” for “5”, “PV4080).” for “PV4288).”

Compound	IC50 [1] [nM]	IC50 [2] [nM]	IC50 [3] [nM]	IC50 [4] [nM]
Cn1cc(-c2cc3nccn3c(-c3ccn(C(CCF)C4CC4)c3)n2)cn1 (stereo not shown) [Example 25, 5-(1-(1-cyclopropyl-3-fluoropropyl)-1H-pyrrol-3-yl)-7-(1-methyl-1H-pyrazol-4-yl)imidazo[1,2-c]pyrimidine]	< 10	10 to 100	10 to 100	10 to 100
Cn1cc(-c2cc3nccn3c(-c3ccn(C4(CCF)CN(S(=O)(=O)C(F)(F)F)C4)c3)n2)cn1 [Example 26, 5-(1-(3-(2-fluoroethyl)-1-((trifluoromethyl)sulfonyl)azetidin-3-yl)-1H-pyrrol-3-yl)-7-(1-methyl-1H-pyrazol-4-yl)imidazo[1,2-c]pyrimidine]	< 10	10 to 100	10 to 100	10 to 100
C=CC1(n2ccc(-c3nc(-c4cnn(C)c4)cc4nccn34)c2)CN(S(=O)(=O)C(F)(F)F)C1 [Example 27, 7-(1-methyl-1H-pyrazol-4-yl)-5-(1-(1-((trifluoromethyl)sulfonyl)-3-vinylazetidin-3-yl)-1H-pyrrol-3-yl)imidazo[1,2-c]pyrimidine]	< 10	10 to 100	10 to 100	10 to 100
Cn1cc(-c2cc3nccn3c(-c3ccn([C@H](CCF)[C@@H]4CC4(F)F)c3)n2)cn1 [Example 28, 5-(1-((R)-1-((S)-2,2-difluorocyclopropyl)-3-fluoropropyl)-1H-pyrrol-3-yl)-7-(1-methyl-1H-pyrazol-4-yl)imidazo[1,2-c]pyrimidine]	10 to 100	100 to 1000	10 to 100	100 to 1000
Cn1cc(-c2cc3nccn3c(-c3cnn(C4(CC=C(F)F)CN(S(=O)(=O)C(F)(F)F)C4)c3)n2)cn1 [Example 32, 5-(1-(3-(3,3-difluoroallyl)-1-((trifluoromethyl)sulfonyl)azetidin-3-yl)-1H-pyrazol-4-yl)-7-(1-methyl-1H-pyrazol-4-yl)imidazo[1,2-c]pyrimidine]	< 10	< 10	< 10	10 to 100
Cn1cc(-c2cc3nccn3c(-c3cnn(C4CCCC4)c3)n2)cn1 [Example 34, 5-(1-cyclopentyl-1H-pyrazol-4-yl)-7-(1-methyl-1H-pyrazol-4-yl)imidazo[1,2-c]pyrimidine]	100 to 1000	> 1000	100 to 1000	> 1000
Cn1cc(-c2cc3nccn3c(-c3cnn(C(CCO)C4CC4(F)F)c3)n2)cn1 (stereo not shown) [Example 35, 3-(2,2-difluorocyclopropyl)-3-(4-(7-(1-methyl-1H-pyrazol-4-yl)imidazo[1,2-c]pyrimidin-5-yl)-1H-pyrazol-1-yl)propan-1-ol]	100 to 1000	> 1000	> 1000	> 1000
C/C=C/[C@H](C1CC1)n1cc(-c2nc(-c3cnn(C)c3)cc3nccn23)cn1 [Example 38, (S,E)-5-(1-(1-cyclopropylbut-2-en-1-yl)-1H-pyrazol-4-yl)-7-(1-methyl-1H-pyrazol-4-yl)imidazo[1,2-c]pyrimidine]	100 to 1000	> 1000	100 to 1000	> 1000

Second part, the compound after the results:

IC50 [1] [nM]	IC50 [2] [nM]	IC50 [3] [nM]	IC50 [4] [nM]	Compound
10 to 100	100 to 1000	10 to 100	100 to 1000	Cn1cc(-c2cc3nccn3c(-c3cnn(C(CCCF)C4CC4)c3)n2)cn1 (stereo not shown) [Example 30, 5-(1-(1-cyclopropyl-4-fluorobutyl)-1H-pyrazol-4-yl)-7-(1-methyl-1H-pyrazol-4-yl)imidazo[1,2-c]pyrimidine]
100 to 1000	100 to 1000	100 to 1000	100 to 1000	COCCC(C1CC1(F)F)n1cc(-c2nc(-c3cnn(C)c3)cc3nccn23)cn1 (stereo not shown) [Example 31]
10 to 100	10 to 100	10 to 100	100 to 1000	CCOCCC1(n2cc(-c3nc(-c4cnn(C)c4)cc4nccn34)cn2)CN(S(=O)(=O)C(F)(F)F)C1 [Example 33, 5-(1-(3-(2-ethoxyethyl)-1-((trifluoromethyl)sulfonyl)azetidin-3-yl)-1H-pyrazol-4-yl)-7-(1-methyl-1H-pyrazol-4-yl)imidazo[1,2-c]pyrimidine]
< 10	100 to 1000	10 to 100	100 to 1000	Cn1cc(-c2cc3nccn3c(-c3cnn([C@H](CCF)C4CCC4)c3)n2)cn1 [Example 36, (R)-5-(1-(1-cyclobutyl-3-fluoropropyl)-1H-pyrazol-4-yl)-7-(1-methyl-1H-pyrazol-4-yl)imidazo[1,2-c]pyrimidine]
10 to 100	100 to 1000	100 to 1000	100 to 1000	Cn1cc(-c2cc3nccn3c(-c3cnn([C@@H](CCF)C4CCC4)c3)n2)cn1 [Example 37, (S)-5-(1-(1-cyclobutyl-3-fluoropropyl)-1H-pyrazol-4-yl)-7-(1-methyl-1H-pyrazol-4-yl)imidazo[1,2-c]pyrimidine]
